Reference: patent publication US20240400564A1 (Syndax Pharmaceuticals, Inc, priority 2021, published 2024)

Tests used:
[1] = target: T1, human Menin and N-terminal portion of human MLL (amino acids 4-43) (Homo sapiens, UniProt O00255); assay: Menin-MLL competition assay (HTRF); assay type: binding; conditions: 1 hr incubation
T1 construct: H-FL-Menin diluted to 4 nM in assay buffer
T1 sequence (O00255 1-610): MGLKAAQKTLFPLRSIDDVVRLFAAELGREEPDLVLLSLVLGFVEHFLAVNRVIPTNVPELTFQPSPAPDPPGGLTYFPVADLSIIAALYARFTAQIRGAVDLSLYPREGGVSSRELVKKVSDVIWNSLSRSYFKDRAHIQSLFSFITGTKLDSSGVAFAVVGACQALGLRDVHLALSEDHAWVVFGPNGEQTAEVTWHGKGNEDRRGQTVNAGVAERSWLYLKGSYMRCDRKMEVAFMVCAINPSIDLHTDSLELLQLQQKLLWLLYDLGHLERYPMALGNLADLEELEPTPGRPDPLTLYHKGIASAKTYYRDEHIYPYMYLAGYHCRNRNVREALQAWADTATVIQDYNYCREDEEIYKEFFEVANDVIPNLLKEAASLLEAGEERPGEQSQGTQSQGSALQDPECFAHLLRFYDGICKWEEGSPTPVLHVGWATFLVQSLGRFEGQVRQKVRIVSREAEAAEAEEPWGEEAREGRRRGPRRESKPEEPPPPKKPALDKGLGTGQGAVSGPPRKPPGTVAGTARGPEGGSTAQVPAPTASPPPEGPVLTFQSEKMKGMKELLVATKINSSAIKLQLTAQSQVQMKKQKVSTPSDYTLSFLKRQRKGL
How it was run: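 HTRF competition: 1 nM His-tagged full-length Menin with 2 nM Tb-anti-His6 and 1 nM FITC-MLL(4-43), 1 h at room temperature in Tris pH 7.4 buffer with DTT, BSA, Triton X-100; 3.16-fold compound series, 2% DMSO. Ratio 520/485 normalized to DMSO and 1 μM reference-compound controls for IC50.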

Menin-MLL = target: T2, Menin-MLL (Homo sapiens, UniProt O00255); assay: Determination of binding constants to Menin-MLL (HTRF, EC50 and Ki); conditions: 0.25 nM H-FL-Menin, 3.2 nM FITC-MLL-4-43, 24 hr incubation
T2 sequence (O00255 1-610): T1 sequence (O00255 1-610)

Structure (SMILES): CCN(C(=O)c1cc(F)ccc1Oc1cncnc1N1CC2(CCN(C[C@@H]3CC[C@@H](NC(=O)NCC(F)F)CO3)CC2)C1)C(C)C [Example 41, 2-((4-(7-(((2S,5R)-5-(3-(2,2-Difluoroethyl)ureido)tetrahydro-2H-pyran-2-yl)methyl)-2,7-diazaspiro[3.5]nonan-2-yl)pyrimidin-5-yl)oxy)-N-ethyl-5-fluoro-N-isopropylbenzamide]
- IC50 [1]: < 0.1 µM
- Menin-MLL Ki HTRF Assay: EC50 (nM) (Menin-MLL): ++ (250 nM and <100 nM)
